# Test results published in PubChem BioAssay (NCI).
#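 GI50: concentration for 50% inhibition of growth. TGI marks complete inhibition of growth.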
# Tests used:
# Assay in all cases: NCI anticancer screen, dose series, 384-well format
# HOP-92 NSCLC = system: HOP-92 NSCLC
# SF-539 CNS = system: SF-539 CNS
# U251 glioblastoma = system: U251 glioblastoma
# HCT-116 colon = system: HCT-116 colon
# OVCAR-4 ovarian = system: OVCAR-4 ovarian
# NCI-H460 NSCLC = system: NCI-H460 NSCLC
# SK-OV-3 ovarian = system: SK-OV-3 ovarian
# A498 renal = system: A498 renal
# ACHN renal = system: ACHN renal
# UACC-257 melanoma = system: UACC-257 melanoma
# NCI-H522 lung = system: NCI-H522 lung
# OVCAR-8 ovarian = system: OVCAR-8 ovarian
# OVCAR-3 ovarian = system: OVCAR-3 ovarian
# SR leukemia = system: SR leukemia
# SNB-75 CNS = system: SNB-75 CNS
# KM12 colon = system: KM12 colon
# NCI-H23 lung = system: NCI-H23 lung
# SF-268 CNS = system: SF-268 CNS
# BT-549 breast = system: BT-549 breast
# IGROV1 ovarian = system: IGROV1 ovarian
# A549 NSCLC = system: A549 NSCLC
# SW-620 colon = system: SW-620 colon
# NCI-H322M lung = system: NCI-H322M lung
# HS 578T breast = system: HS 578T breast
# UO-31 renal = system: UO-31 renal
# SN12C renal = system: SN12C renal
# EKVX NSCLC = system: EKVX NSCLC
# PC-3 prostate = system: PC-3 prostate
# HL-60(TB) leukemia = system: HL-60(TB) leukemia
# UACC-62 melanoma = system: UACC-62 melanoma
# MDA-MB-231 breast = system: MDA-MB-231 breast
# MDA-MB-468 breast = system: MDA-MB-468 breast
# DU-145 prostate = system: DU-145 prostate
# K-562 leukemia = system: K-562 leukemia
# 786-0 renal = system: 786-0 renal
# SNB-19 CNS = system: SNB-19 CNS
# HT29 colon = system: HT29 colon
# MALME-3M melanoma = system: MALME-3M melanoma
# MOLT-4 leukemia = system: MOLT-4 leukemia
# CAKI-1 renal = system: CAKI-1 renal
# TK-10 renal = system: TK-10 renal
# SK-MEL-28 melanoma = system: SK-MEL-28 melanoma
# SK-MEL-5 melanoma = system: SK-MEL-5 melanoma
# T-47D breast = system: T-47D breast
# NCI-H226 lung = system: NCI-H226 lung
# OVCAR-5 ovarian = system: OVCAR-5 ovarian
# RXF 393 renal = system: RXF 393 renal
# SF-295 CNS = system: SF-295 CNS
# HCT-15 colon = system: HCT-15 colon
# SK-MEL-2 melanoma = system: SK-MEL-2 melanoma
# MDA-MB-435 melanoma = system: MDA-MB-435 melanoma
# M14 melanoma = system: M14 melanoma
# HOP-62 NSCLC = system: HOP-62 NSCLC
# MCF7 breast = system: MCF7 breast
# COLO 205 colon = system: COLO 205 colon
compound,measurement,setting,value
COC1CCC(n2c([C@@H]3CCCC(=O)N3c3ccc(F)c(F)c3)nc3cc(-c4c(C)noc4C)ccc32)CC1 (stereo not given in full),GI50,HOP-92 NSCLC,4.57 µM
same,TGI,HOP-92 NSCLC,18.8 µM
same,GI50,SF-539 CNS,5.76 µM
same,TGI,SF-539 CNS,19 µM
same,GI50,U251 glioblastoma,12 µM
same,TGI,U251 glioblastoma,25.9 µM
same,GI50,HCT-116 colon,4.48 µM
same,TGI,HCT-116 colon,18.4 µM
same,GI50,OVCAR-4 ovarian,1.79 µM
same,TGI,OVCAR-4 ovarian,7.76 µM
same,GI50,NCI-H460 NSCLC,3.29 µM
same,TGI,NCI-H460 NSCLC,16.8 µM
same,GI50,SK-OV-3 ovarian,3.96 µM
same,TGI,SK-OV-3 ovarian,16.2 µM
same,GI50,A498 renal,6.19 µM
same,TGI,A498 renal,19.4 µM
same,GI50,ACHN renal,3.62 µM
same,TGI,ACHN renal,16.6 µM
same,GI50,UACC-257 melanoma,3.1 µM
same,TGI,UACC-257 melanoma,17.4 µM
same,GI50,NCI-H522 lung,1.38 µM
same,TGI,NCI-H522 lung,12.2 µM
same,GI50,OVCAR-8 ovarian,2.8 µM
same,TGI,OVCAR-8 ovarian,15.8 µM
same,GI50,OVCAR-3 ovarian,2.9 µM
same,TGI,OVCAR-3 ovarian,16.1 µM
same,GI50,SR leukemia,1.22 µM
same,TGI,SR leukemia,13.8 µM
same,GI50,SNB-75 CNS,12.3 µM
same,TGI,SNB-75 CNS,26 µM
same,GI50,KM12 colon,13.6 µM
same,TGI,KM12 colon,28.3 µM
same,GI50,NCI-H23 lung,10.2 µM
same,TGI,NCI-H23 lung,25.1 µM
same,GI50,SF-268 CNS,11.9 µM
same,TGI,SF-268 CNS,25.6 µM
same,GI50,BT-549 breast,2.27 µM
same,TGI,BT-549 breast,15.5 µM
same,GI50,IGROV1 ovarian,3.36 µM
same,TGI,IGROV1 ovarian,15.5 µM
same,GI50,A549 NSCLC,8.03 µM
same,TGI,A549 NSCLC,23.5 µM
same,GI50,SW-620 colon,13.9 µM
same,TGI,SW-620 colon,27.5 µM
same,GI50,NCI-H322M lung,3.02 µM
same,TGI,NCI-H322M lung,15.6 µM
same,GI50,HS 578T breast,0.716 µM
same,TGI,HS 578T breast,14.2 µM
same,GI50,UO-31 renal,2.13 µM
same,TGI,UO-31 renal,13.8 µM
same,GI50,SN12C renal,12 µM
same,TGI,SN12C renal,25.4 µM
same,GI50,EKVX NSCLC,15.6 µM
same,TGI,EKVX NSCLC,43.2 µM
same,GI50,PC-3 prostate,3.97 µM
same,TGI,PC-3 prostate,19.5 µM
same,GI50,HL-60(TB) leukemia,0.0497 µM
same,TGI,HL-60(TB) leukemia,1.2 µM
same,GI50,UACC-62 melanoma,0.385 µM
same,TGI,UACC-62 melanoma,12.1 µM
same,GI50,MDA-MB-231 breast,3.05 µM
same,TGI,MDA-MB-231 breast,16.2 µM
same,GI50,MDA-MB-468 breast,2.94 µM
same,TGI,MDA-MB-468 breast,18.6 µM
same,GI50,DU-145 prostate,12.8 µM
same,TGI,DU-145 prostate,60.4 µM
same,GI50,K-562 leukemia,1.51 µM
same,TGI,K-562 leukemia,16.1 µM
same,GI50,786-0 renal,2.1 µM
same,TGI,786-0 renal,19.9 µM
same,GI50,SNB-19 CNS,11.5 µM
same,TGI,SNB-19 CNS,27.6 µM
same,GI50,HT29 colon,1.6 µM
same,TGI,HT29 colon,13.7 µM
same,GI50,MALME-3M melanoma,1.04 µM
same,TGI,MALME-3M melanoma,6.35 µM
same,GI50,MOLT-4 leukemia,2.05 µM
same,TGI,MOLT-4 leukemia,14 µM
same,GI50,CAKI-1 renal,0.532 µM
same,TGI,CAKI-1 renal,13.2 µM
same,GI50,TK-10 renal,1.55 µM
same,TGI,TK-10 renal,11.8 µM
same,GI50,SK-MEL-28 melanoma,7.88 µM
same,TGI,SK-MEL-28 melanoma,21.6 µM
same,GI50,SK-MEL-5 melanoma,0.489 µM
same,TGI,SK-MEL-5 melanoma,8.77 µM
same,GI50,T-47D breast,1.87 µM
same,TGI,T-47D breast,7.11 µM
same,GI50,NCI-H226 lung,1.07 µM
same,TGI,NCI-H226 lung,12.1 µM
same,GI50,OVCAR-5 ovarian,11.3 µM
same,TGI,OVCAR-5 ovarian,58.7 µM
same,GI50,RXF 393 renal,1.24 µM
same,TGI,RXF 393 renal,5.22 µM
same,GI50,SF-295 CNS,5.05 µM
same,TGI,SF-295 CNS,20 µM
same,GI50,HCT-15 colon,2.95 µM
same,TGI,HCT-15 colon,14.8 µM
same,GI50,SK-MEL-2 melanoma,4.46 µM
same,TGI,SK-MEL-2 melanoma,18.4 µM
same,GI50,MDA-MB-435 melanoma,7.03 µM
same,TGI,MDA-MB-435 melanoma,23.9 µM
same,GI50,M14 melanoma,0.568 µM
same,TGI,M14 melanoma,14.9 µM
same,GI50,HOP-62 NSCLC,2.92 µM
same,TGI,HOP-62 NSCLC,15.4 µM
same,GI50,MCF7 breast,0.0402 µM
same,TGI,MCF7 breast,12.4 µM
same,GI50,COLO 205 colon,3.44 µM
same,TGI,COLO 205 colon,18.9 µM
CC(C)[C@@H](CS(=O)(=O)C(C)C)N1C(=O)[C@@](C)(CC(=O)O)C[C@H](c2cccc(Cl)c2)[C@H]1c1ccc(Cl)cc1,GI50,HOP-92 NSCLC,17.7 µM
same,TGI,HOP-92 NSCLC,40.4 µM
same,GI50,SF-539 CNS,16.5 µM
same,TGI,SF-539 CNS,35.2 µM
same,GI50,U251 glioblastoma,15.5 µM
same,TGI,U251 glioblastoma,37.8 µM
same,GI50,HCT-116 colon,0.334 µM
same,TGI,HCT-116 colon,15.1 µM
same,GI50,OVCAR-4 ovarian,18.3 µM
same,TGI,OVCAR-4 ovarian,> 100 µM
same,GI50,NCI-H460 NSCLC,29.3 µM
same,TGI,NCI-H460 NSCLC,> 100 µM
same,GI50,SK-OV-3 ovarian,24 µM
same,TGI,SK-OV-3 ovarian,80.2 µM
same,GI50,A498 renal,0.295 µM
same,TGI,A498 renal,11.3 µM
same,GI50,ACHN renal,0.228 µM
same,TGI,ACHN renal,0.949 µM
same,GI50,UACC-257 melanoma,0.203 µM
same,TGI,UACC-257 melanoma,0.671 µM
same,GI50,NCI-H522 lung,20.1 µM
same,TGI,NCI-H522 lung,49.3 µM
same,GI50,OVCAR-8 ovarian,21.1 µM
same,TGI,OVCAR-8 ovarian,92.3 µM
same,GI50,OVCAR-3 ovarian,14.5 µM
same,TGI,OVCAR-3 ovarian,29.7 µM
same,GI50,SR leukemia,0.053 µM
same,TGI,SR leukemia,0.187 µM
same,GI50,SNB-75 CNS,26.1 µM
same,TGI,SNB-75 CNS,> 100 µM
same,GI50,KM12 colon,0.319 µM
same,TGI,KM12 colon,10 µM
same,GI50,NCI-H23 lung,14.6 µM
same,TGI,NCI-H23 lung,36.9 µM
same,GI50,SF-268 CNS,28.9 µM
same,TGI,SF-268 CNS,> 100 µM
same,GI50,BT-549 breast,17.5 µM
same,TGI,BT-549 breast,34.4 µM
same,GI50,IGROV1 ovarian,12.1 µM
same,TGI,IGROV1 ovarian,> 100 µM
same,GI50,A549 NSCLC,0.433 µM
same,TGI,A549 NSCLC,13 µM
same,GI50,SW-620 colon,37 µM
same,TGI,SW-620 colon,> 100 µM
same,GI50,NCI-H322M lung,37.1 µM
same,TGI,NCI-H322M lung,94.1 µM
same,GI50,HS 578T breast,15.5 µM
same,TGI,HS 578T breast,32.8 µM
same,GI50,UO-31 renal,0.199 µM
same,TGI,UO-31 renal,0.445 µM
same,GI50,SN12C renal,32.1 µM
same,TGI,SN12C renal,> 100 µM
same,GI50,EKVX NSCLC,18.9 µM
same,TGI,EKVX NSCLC,51.5 µM
same,GI50,PC-3 prostate,14 µM
same,TGI,PC-3 prostate,62.7 µM
same,GI50,HL-60(TB) leukemia,17.3 µM
same,TGI,HL-60(TB) leukemia,31.2 µM
same,GI50,UACC-62 melanoma,0.151 µM
same,TGI,UACC-62 melanoma,12.8 µM
same,GI50,MDA-MB-231 breast,20.5 µM
same,TGI,MDA-MB-231 breast,> 100 µM
same,GI50,MDA-MB-468 breast,6.07 µM
same,TGI,MDA-MB-468 breast,22.2 µM
same,GI50,DU-145 prostate,27.2 µM
same,TGI,DU-145 prostate,> 100 µM
same,GI50,K-562 leukemia,20.6 µM
same,TGI,K-562 leukemia,> 100 µM
same,GI50,786-0 renal,36.5 µM
same,TGI,786-0 renal,> 100 µM
same,GI50,SNB-19 CNS,41.7 µM
same,TGI,SNB-19 CNS,> 100 µM
same,GI50,HT29 colon,37 µM
same,TGI,HT29 colon,> 100 µM
same,GI50,MALME-3M melanoma,0.45 µM
same,TGI,MALME-3M melanoma,19.8 µM
same,GI50,MOLT-4 leukemia,0.117 µM
same,TGI,MOLT-4 leukemia,0.246 µM
same,GI50,CAKI-1 renal,0.204 µM
same,TGI,CAKI-1 renal,13.1 µM
same,GI50,TK-10 renal,35.2 µM
same,TGI,TK-10 renal,> 100 µM
same,GI50,SK-MEL-28 melanoma,42.5 µM
same,TGI,SK-MEL-28 melanoma,> 100 µM
same,GI50,SK-MEL-5 melanoma,0.994 µM
same,TGI,SK-MEL-5 melanoma,15 µM
same,GI50,T-47D breast,23.3 µM
same,TGI,T-47D breast,73.2 µM
same,GI50,NCI-H226 lung,0.148 µM
same,TGI,NCI-H226 lung,0.324 µM
same,GI50,OVCAR-5 ovarian,38 µM
same,TGI,OVCAR-5 ovarian,> 100 µM
same,GI50,RXF 393 renal,13.1 µM
same,TGI,RXF 393 renal,36 µM
same,GI50,SF-295 CNS,14.7 µM
same,TGI,SF-295 CNS,38.7 µM
same,GI50,HCT-15 colon,26.4 µM
same,TGI,HCT-15 colon,78.3 µM
same,GI50,SK-MEL-2 melanoma,19.1 µM
same,TGI,SK-MEL-2 melanoma,34.6 µM
same,GI50,MDA-MB-435 melanoma,20.7 µM
same,TGI,MDA-MB-435 melanoma,46 µM
same,GI50,M14 melanoma,13.5 µM
same,TGI,M14 melanoma,37.5 µM
same,GI50,HOP-62 NSCLC,21.5 µM
same,TGI,HOP-62 NSCLC,51.1 µM
same,GI50,MCF7 breast,0.157 µM
same,TGI,MCF7 breast,0.573 µM
same,GI50,COLO 205 colon,52.4 µM
same,TGI,COLO 205 colon,> 100 µM
